This is an account of results in US20110305637A1, “RADIOLABELLED PDE10 LIGANDS” (Janssen Pharmaceutica N.V., priority 2009, published 2011).

For one data set, the target named is T1, rat PDE10A2 (Rattus norvegicus, UniProt Q9QYJ6).
T1 sequence (Q9QYJ6 1-794): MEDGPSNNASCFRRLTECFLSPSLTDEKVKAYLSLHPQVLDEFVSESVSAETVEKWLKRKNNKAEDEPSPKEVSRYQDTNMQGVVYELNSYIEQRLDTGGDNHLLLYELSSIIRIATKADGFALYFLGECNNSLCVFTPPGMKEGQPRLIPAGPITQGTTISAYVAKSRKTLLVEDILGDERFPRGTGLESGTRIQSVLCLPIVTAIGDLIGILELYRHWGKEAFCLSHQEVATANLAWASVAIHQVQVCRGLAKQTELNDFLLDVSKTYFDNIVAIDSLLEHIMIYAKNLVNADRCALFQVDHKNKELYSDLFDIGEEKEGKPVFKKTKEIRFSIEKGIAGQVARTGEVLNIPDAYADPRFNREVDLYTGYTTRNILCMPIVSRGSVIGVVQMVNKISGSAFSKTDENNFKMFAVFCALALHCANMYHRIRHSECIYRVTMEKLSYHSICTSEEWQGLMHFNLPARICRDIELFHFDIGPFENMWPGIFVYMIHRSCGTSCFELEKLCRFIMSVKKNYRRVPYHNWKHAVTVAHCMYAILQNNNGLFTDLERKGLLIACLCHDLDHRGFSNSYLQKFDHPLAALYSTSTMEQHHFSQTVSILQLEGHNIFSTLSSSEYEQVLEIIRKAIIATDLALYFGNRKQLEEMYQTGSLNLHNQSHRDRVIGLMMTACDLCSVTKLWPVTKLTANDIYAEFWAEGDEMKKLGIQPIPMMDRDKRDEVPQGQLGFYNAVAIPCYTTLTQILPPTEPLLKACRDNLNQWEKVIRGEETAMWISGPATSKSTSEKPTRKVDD
Briefly: rat PDE10A2-cAMP inhibition. The note with it: read-out: pIC50, rat PDE10A2-cAMP inhibition (converted). The format is biochemical. How it is done: The affinity of compounds Ia and Ib was determined by measuring rat PDE10A2-cAMP inhibition: […]

For a further data set, the target named is PDE8A1 (Homo sapiens, UniProt O60658). Briefly: selectivity over PDE8A1. The class given is biochemical.
PDE8A1, sequence (O60658 whole entry, species assumed): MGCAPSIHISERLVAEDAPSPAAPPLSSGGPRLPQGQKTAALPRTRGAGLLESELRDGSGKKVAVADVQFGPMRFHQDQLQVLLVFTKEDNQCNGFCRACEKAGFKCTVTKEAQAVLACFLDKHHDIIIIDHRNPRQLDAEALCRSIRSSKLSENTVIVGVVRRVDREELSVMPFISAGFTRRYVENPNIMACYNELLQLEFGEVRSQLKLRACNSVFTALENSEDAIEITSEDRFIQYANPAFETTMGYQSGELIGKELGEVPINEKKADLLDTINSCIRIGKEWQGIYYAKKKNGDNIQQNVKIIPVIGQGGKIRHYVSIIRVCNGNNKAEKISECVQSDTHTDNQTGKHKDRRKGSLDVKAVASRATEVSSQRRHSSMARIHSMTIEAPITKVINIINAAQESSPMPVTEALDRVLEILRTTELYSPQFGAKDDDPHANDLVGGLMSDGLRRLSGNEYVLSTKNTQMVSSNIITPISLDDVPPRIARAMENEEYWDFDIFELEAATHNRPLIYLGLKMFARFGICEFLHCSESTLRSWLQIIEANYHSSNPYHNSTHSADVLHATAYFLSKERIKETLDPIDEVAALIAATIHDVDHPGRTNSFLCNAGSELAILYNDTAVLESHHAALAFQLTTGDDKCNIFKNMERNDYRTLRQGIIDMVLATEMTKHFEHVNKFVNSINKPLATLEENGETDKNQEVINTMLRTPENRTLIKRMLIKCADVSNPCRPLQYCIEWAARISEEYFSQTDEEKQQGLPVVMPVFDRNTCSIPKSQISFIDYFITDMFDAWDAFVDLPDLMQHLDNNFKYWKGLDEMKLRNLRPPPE

On to `FCCn1cc(-c2ccncc2)c(-c2ccc(OCc3ccc4ccccc4n3)cc2)n1` [Ia, 2-{4-[1-(2-Fluoroethyl)-4-pyridin-4-yl-1H-1-pyrazol-3-yl]-phenoxymethyl}-quinoline], for which the IC50 on rat PDE10A2 is 0.479 nM.
In the case of `FCCCn1cc(-c2ccncc2)c(-c2ccc(OCc3ccc4ccccc4n3)cc2)n1` [Ib, 2-{4-[1-(3-Fluoropropyl)-4-pyridin-4-yl-1H-1-pyrazol-3-yl]-phenoxymethyl}-quinoline], the melting point (usually the temperature, or range, at which the solid turns liquid) is 101.9 °C. Further, the IC50 at rat PDE10A2 is 0.692 nM. The “selective over PDE8A1” value on PDE8A1 is listed as more than 200 fold.
